Data on 1 molecule can be found in US7405220B2, “Pyrazolopyrimidines” (Hoffmann-La Roche Inc., priority 2004, dated 2008).

In one experiment the target is human cyclin D1-Cdk4 (Homo sapiens, UniProt P11802). The experiment can be described thus: Cdk4 FlashPlate kinase assay (Rb phosphorylation). In kind it is biochemical. The conditions noted are these: recombinant cyclin D1-Cdk4, Rb substrate, 1 μM ATP. The protocol:
(§1) To determine inhibition of Cdk4, Cdk2 and Cdk1 activity, kinase assays were conducted using FlashPlate™ assays (NEN™-Life Science Products). FlashPlate assays were performed using recombinant human cyclin B-Cdk1, human cyclin E-Cdk2 or human cyclin D1-Cdk4 complexes. GST-cyclinE (GST-cycE), Cdk2, GST-cyclinB (GST-cycB), Cdk1, GST-Cdk4 and cyclin D1 (cycD1) cDNA clones in baculovirus vectors were provided by Dr. W. Harper at the Baylor College of Medicine, Houston, Tex. Proteins were co-expressed in High Five™ insect cells and the complex was purified on glutathione Sepharose resin (Pharmacia, Piscataway, N.J.) as previously described (Harper, J. W. et al. Cell 1993, 75, 805-816). A 6×-Histidine tagged truncated form of retinoblastoma (Rb) protein (amino acid 386-928) was used as the substrate for the cycD1-Cdk4, cycB-Cdk1 and the cycE-Cdk2 assays (the expression plasmid was provided by Dr. Veronica Sullivan, Department of Molecular Virology, Roche Research Centre, Welwyn Garden City, United Kingdom). The Rb protein is a natural substrate for phosphorylation by Cdk4, Cdk2 and Cdk1 (see Herwig and Strauss Eur. J. Biochem. Vol. 246 (1997) pp. 581-601 and the references cited therein).
(§2) The expression of the 62 Kd protein was under the control of an IPTG inducible promoter in an M15 E. coli strain. Cells were lysed by sonication and purification was carried out by binding lysates at pH 8.0 to a Ni-chelated agarose column pretreated with 1 mM imidazole. The resin was then washed several times with incrementally decreasing pH buffers to pH 6.0, and eluted with 500 mM imidazole. Eluted protein was dialysed against 20 mM HEPES pH 7.5, 30% glycerol, 200 mM NaCl, and 1 mM DTT. Purified Rb fusion protein stocks were quantitated for protein concentration, aliquoted, and stored at −70° C.
(§3) For all three kinase assays reported herein, 96-well FlashPlates were coated with Rb protein at 10 μg/ml, using 100 μl per well. Plates were incubated at 4° C. overnight or at room temperature for 3 hours on a shaker. To control for nonspecific phosphorylation, one row of wells was coated with 100 μl/well coating buffer (20 mM HEPES, 0.2 M NaCl). Plates were then washed twice with wash buffer (0.01% Tween 20 in phosphate-buffered saline). Compounds to be tested (“test compounds”) were added to the wells at 5× final concentration. Reactions were initiated by immediate addition of 40 μl reaction mix (25 mM HEPES, 20 mM MgCl2, 0.002% Tween 20, 2 mM DTT, 1 μM ATP, 4 nM 33P-ATP) and a sufficient amount of enzyme to give counts that were at least 10-fold above background. Plates were incubated at room temperature on a shaker for 30 minutes. Plates were washed four times with the wash buffer, sealed, and counted on the TopCount scintillation counter (Packard Instrument Co., Downers Grove, Ill.]. The percent inhibition of Rb phosphorylation, which is a measure of the inhibition of Cdk activity, was determined according to the following formula: […]
(§4) where “test compound” refers to the average counts per minute of the test duplicates, “nonspecific” refers to the average counts per minute when no CyclinD/Cdk4, etc., was added, and “total” refers to the average counts per minute when no compound was added. The IC50 value is the concentration of test compound that reduces by 50% the protein-kinase induced incorporation of the radiolabel under the test conditions described.

In another experiment the target is human cyclin E-Cdk2 (Homo sapiens, UniProt P24941). The experiment can be described thus: Cdk2 FlashPlate kinase assay (Rb phosphorylation). The conditions noted are these: recombinant cyclin E-Cdk2, Rb substrate, 1 μM ATP. Format: biochemical. The protocol:
as §1, §2, §3, §4

The target in the next experiment is human cyclin B-Cdk1 (Homo sapiens, UniProt P06493). The experiment in a line: Cdk1 FlashPlate kinase assay (Rb phosphorylation). Format: biochemical. The conditions noted are these: recombinant cyclin B-Cdk1, Rb substrate, 1 μM ATP. The protocol: as §1, §2, §3, §4
Experiment [1] concerns HCT116, a colorectal carcinoma cell line. The experiment in a line: Tetrazolium dye (MTT) proliferation assay. The conditions noted are these: Homo sapiens, HCT-116; HCT116 cells. In kind it is cell-based. The procedure: Proliferation was evaluated by the tetrazolium dye assay according to the procedure of Denizot and Lang (Denizot, F. and Lang, R. J Immunol Methods 1986, 89, 271-277). The cell line used was HCT116, a colorectal carcinoma cell line obtained from the American Type Cell Culture Collection (ATCC; Rockville, Md.). The cells were grown in McCoy's 5A medium supplemented with 10% FCS and L-glutamine.
Cells were plated at the appropriate seeding density to give logarithmic growth over the course of the assay in a 96-well tissue culture plate. Plates were incubated overnight at 37° C. in a humidified incubator with 5% CO2. The next day, test compounds were serially diluted to four times the final concentration in the appropriate medium containing 1.2% DMSO. One-fourth final volume of each dilution was added in duplicate to the plates containing cells. The same volume of 1.2% DMSO in medium was added to a row of “control wells” such that the final concentration of DMSO in each well was 0.3%. Wells to which no cells were added served as the “blank.” Wells to which no inhibitor was added served as “no inhibitor control.” The plates were) returned to the incubator, and at set time points (determined by their growth curves) plates were analyzed as described below.
3-(4,5-dimethylthiazole-2-yl)-2,5-diphenyl-2H-tetrazolium bromide (thiazolyl blue; MTT; Sigma) was added to each well to yield a final concentration of 1 mg/ml. Plates were returned to the incubator for 2.5-3 hours at 37° C. The MTT-containing medium was removed and the resulting formazan metabolite was solubilized in 100% ethanol with shaking for 15 minutes at room temperature. Absorbance readings were taken in a microtiter plate reader (Dynatech and Molecular Devices plate readers were used interchangeably) at a wavelength of 570 nm with a 650 nm reference. Percent inhibition (% INH) is calculated by subtracting the absorbance of the blank well from all wells, then subtracting the ratio of the average absorbance of each test duplicate (SAVE) by the average of the controls (CAVE) from 1.00. The final number is then multiplied by 100 (% INH=(1.00−SAVE/CAVE)×100). The concentration at which 50% inhibition of cell proliferation is obtained (the IC50) is determined from the linear regression of a plot of the logarithm of the concentration versus percent inhibition.

human cyclin B-Cdk1, sequence (P06493 whole entry): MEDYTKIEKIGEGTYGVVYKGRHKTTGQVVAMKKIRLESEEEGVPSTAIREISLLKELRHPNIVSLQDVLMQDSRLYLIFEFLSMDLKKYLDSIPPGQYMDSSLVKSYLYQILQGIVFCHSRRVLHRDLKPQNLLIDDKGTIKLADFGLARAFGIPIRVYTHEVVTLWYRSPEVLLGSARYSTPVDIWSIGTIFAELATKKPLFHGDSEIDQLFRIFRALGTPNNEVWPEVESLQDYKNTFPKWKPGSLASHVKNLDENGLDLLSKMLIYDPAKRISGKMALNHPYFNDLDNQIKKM
human cyclin B-Cdk1, sequence (P14635 whole entry partner): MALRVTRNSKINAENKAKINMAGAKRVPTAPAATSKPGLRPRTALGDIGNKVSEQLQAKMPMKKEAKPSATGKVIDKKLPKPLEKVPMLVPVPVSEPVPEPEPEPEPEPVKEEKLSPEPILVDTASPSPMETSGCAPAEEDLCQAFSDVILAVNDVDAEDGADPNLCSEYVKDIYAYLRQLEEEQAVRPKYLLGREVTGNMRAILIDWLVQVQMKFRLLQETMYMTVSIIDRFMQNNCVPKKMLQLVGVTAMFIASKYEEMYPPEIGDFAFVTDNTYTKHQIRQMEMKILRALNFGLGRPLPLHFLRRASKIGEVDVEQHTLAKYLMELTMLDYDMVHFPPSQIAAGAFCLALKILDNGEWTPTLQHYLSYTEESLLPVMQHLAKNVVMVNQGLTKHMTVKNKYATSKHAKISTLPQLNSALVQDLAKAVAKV
human cyclin D1-Cdk4, sequence (P11802 whole entry): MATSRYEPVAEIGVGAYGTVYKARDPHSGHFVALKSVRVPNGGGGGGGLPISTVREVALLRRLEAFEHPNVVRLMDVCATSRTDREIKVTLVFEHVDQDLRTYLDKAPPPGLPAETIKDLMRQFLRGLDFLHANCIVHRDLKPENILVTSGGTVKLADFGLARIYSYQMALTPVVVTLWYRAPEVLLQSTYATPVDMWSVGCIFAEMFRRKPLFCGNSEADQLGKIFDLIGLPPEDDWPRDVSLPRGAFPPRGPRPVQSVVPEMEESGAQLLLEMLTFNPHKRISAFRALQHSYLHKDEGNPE
human cyclin D1-Cdk4, sequence (P24385 whole entry partner): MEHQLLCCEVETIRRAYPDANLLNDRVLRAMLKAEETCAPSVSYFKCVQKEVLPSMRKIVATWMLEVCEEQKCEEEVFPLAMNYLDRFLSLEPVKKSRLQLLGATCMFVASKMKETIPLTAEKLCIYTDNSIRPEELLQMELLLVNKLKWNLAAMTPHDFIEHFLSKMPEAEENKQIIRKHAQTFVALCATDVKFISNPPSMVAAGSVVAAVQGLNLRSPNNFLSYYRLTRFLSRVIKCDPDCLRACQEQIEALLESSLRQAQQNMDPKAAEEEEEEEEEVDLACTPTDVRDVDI

A word on the IC50: it is the concentration that gives 50% inhibition. For the molecule `CS(=O)(=O)N1CCC(Nc2ncc3c(-c4cccc(F)c4)n[nH]c3n2)CC1` [Example 31, [3-(3-Fluoro-phenyl)-1H-pyrazolo[3,4-d]pyrimidin-6-yl]-(1-methanesulfonyl-piperidin-4-yl)-amine], the half-inhibitory concentration (IC50) stood at 18.5 nM at human cyclin D1-Cdk4, 230 nM at human cyclin E-Cdk2, 1140 nM on human cyclin B-Cdk1 and 30000 nM in experiment [1].
